# According to PMC5896380, “Selective imaging of cathepsin L in breast cancer by fluorescent activity-based probes” (Chemical Science, 2018):
# Non-standard residues stand in square brackets, D forms with d. *: point of attachment. Phe(F5) = N[C@@H](Cc1c(F)c(F)c(F)c(F)c1F)C(=O)O; ACC = NC(=O)Cc1cc(=O)oc2cc(N*)ccc12; hArg = N=C(N)NCCCC[C@H](N)C(=O)O; ClZ = O=C(OCc1ccccc1Cl)*; OBn = c1ccc(CO*)cc1
# Columns and labels:
# Assay type in all cases: biochemical
# cathepsin K = target: T1, cathepsin K (Homo sapiens, UniProt P43235); assay: Kinetic parameters of ACC substrates with cathepsin K; conditions: Fig. 5B; pH 5.5, 37 °C; cathepsin K 5–20 nM; triplicate, SD below 15%
# T1 construct: made in house
# T1 sequence (P43235 115-329): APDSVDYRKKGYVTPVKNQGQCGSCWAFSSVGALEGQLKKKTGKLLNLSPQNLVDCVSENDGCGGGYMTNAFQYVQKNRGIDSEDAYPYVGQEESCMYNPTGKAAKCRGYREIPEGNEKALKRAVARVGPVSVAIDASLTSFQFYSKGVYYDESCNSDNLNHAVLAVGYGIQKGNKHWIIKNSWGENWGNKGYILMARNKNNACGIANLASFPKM
# Protocol: (§1) All kinetic experiments were performed using fMax (Molecular Devices) and CLARIOStar (BMG LABTECH) spectrofluorimeters operating in kinetic mode using 96-well plates. ACC-labeled substrates were screened using 355 nm and 460 nm wavelengths (excitation and emission, respectively). […] The buffer was prepared at room temperature and the enzyme kinetic studies were performed at 37 °C.
# (§2) Classic substrate velocity plots were analyzed according to Michaelis–Menten kinetics and a detailed protocol for the determination of kinetic parameters for ACC-tagged substrates is found elsewhere.[56] […] Experiments were repeated at least three times and results are presented as an average. The SDs were below 15%.
# cathepsin L = target: T2, cathepsin L (Homo sapiens, UniProt P07711); assay: Kinetic parameters of ACC substrates with cathepsin L; conditions: Fig. 5B; pH 5.5, 37 °C; cathepsin L 0.1–0.5 nM; triplicate, SD below 15%
# T2 construct: made in house
# Protocol: as §1, §2
# cathepsin V = target: T3, cathepsin V (Homo sapiens, UniProt O60911); assay: Kinetic parameters of ACC substrates with cathepsin V; conditions: Fig. 5B; pH 5.5, 37 °C; cathepsin V 10–20 nM; triplicate, SD below 15%
# T3 construct: made in house
# Protocol: as §1, §2
# cathepsin S = target: T4, cathepsin S (Homo sapiens, UniProt P25774); assay: Kinetic parameters of ACC substrates with cathepsin S; conditions: Fig. 5B; pH 5.5, 37 °C; cathepsin S 5–20 nM; triplicate, SD below 15%
# T4 construct: made in house
# Protocol: as §1, §2
# cathepsin B = target: T5, cathepsin B (Homo sapiens, UniProt P07858); assay: Kinetic parameters of ACC substrates with cathepsin B; conditions: Fig. 5B; pH 5.5, 37 °C; cathepsin B 4–15 nM; triplicate, SD below 15%
# T5 construct: made in house
# Protocol: as §1, §2
# T2 sequence (P07711 114-333): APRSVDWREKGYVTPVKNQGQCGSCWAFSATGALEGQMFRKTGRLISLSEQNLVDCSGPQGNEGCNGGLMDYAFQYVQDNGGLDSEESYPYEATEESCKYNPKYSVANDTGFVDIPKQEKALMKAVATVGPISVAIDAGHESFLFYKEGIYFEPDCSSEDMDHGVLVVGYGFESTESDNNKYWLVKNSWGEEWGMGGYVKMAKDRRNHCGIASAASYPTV
# T3 sequence (O60911 114-334): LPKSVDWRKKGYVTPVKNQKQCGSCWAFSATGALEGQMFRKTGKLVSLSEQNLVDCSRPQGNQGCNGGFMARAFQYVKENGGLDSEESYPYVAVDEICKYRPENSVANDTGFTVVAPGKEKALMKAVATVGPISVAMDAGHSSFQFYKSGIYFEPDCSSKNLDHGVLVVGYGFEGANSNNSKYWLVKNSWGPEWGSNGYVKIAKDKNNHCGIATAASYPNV
# T4 sequence (P25774 115-331): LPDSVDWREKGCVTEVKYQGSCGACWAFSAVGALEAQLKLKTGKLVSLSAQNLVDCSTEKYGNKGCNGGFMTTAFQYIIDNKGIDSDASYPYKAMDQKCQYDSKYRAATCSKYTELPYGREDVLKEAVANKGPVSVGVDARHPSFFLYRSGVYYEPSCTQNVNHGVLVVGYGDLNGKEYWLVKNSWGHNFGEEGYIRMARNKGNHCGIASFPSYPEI
Substance,kcat/KM Cath-K (cathepsin K) [M⁻¹ s⁻¹],kcat/KM Cath-L (cathepsin L),kcat/KM Cath-V (cathepsin V),kcat/KM Cath-S (cathepsin S),kcat/KM Cath-B (cathepsin B)
Ac-H[dV][Phe(F5)]E(OBn)-{ACC} (SMILES CC(=O)N[C@@H](Cc1c[nH]cn1)C(=O)N[C@@H](C(=O)N[C@@H](Cc1c(F)c(F)c(F)c(F)c1F)C(=O)N[C@@H](CCC(=O)OCc1ccccc1)C(=O)Nc1ccc2c(CC(N)=O)cc(=O)oc2c1)C(C)C),626,"599,800 M^-1s^-1",710 M⁻¹ s⁻¹,"1,110 M^-1s^-1",941 M⁻¹ s⁻¹
Ac-H[dV][Phe(F5)]K(ClZ)-{ACC} (SMILES CC(=O)N[C@@H](Cc1c[nH]cn1)C(=O)N[C@@H](C(=O)N[C@@H](Cc1c(F)c(F)c(F)c(F)c1F)C(=O)N[C@@H](CCCCNC(=O)OCc1ccccc1Cl)C(=O)Nc1ccc2c(CC(N)=O)cc(=O)oc2c1)C(C)C),361,"686,700 M^-1s^-1",329 M⁻¹ s⁻¹,< 10 M⁻¹ s⁻¹,"1,320 M^-1s^-1"
Ac-H[dV][Phe(F5)]L-{ACC} (SMILES CC(=O)N[C@@H](Cc1c[nH]cn1)C(=O)N[C@@H](C(=O)N[C@@H](Cc1c(F)c(F)c(F)c(F)c1F)C(=O)N[C@@H](CC(C)C)C(=O)Nc1ccc2c(CC(N)=O)cc(=O)oc2c1)C(C)C),646,"135,600 M^-1s^-1",325 M⁻¹ s⁻¹,912 M⁻¹ s⁻¹,684 M⁻¹ s⁻¹
Ac-H[dV][Phe(F5)][hArg]-{ACC} (SMILES CC(=O)N[C@@H](Cc1c[nH]cn1)C(=O)N[C@@H](C(=O)N[C@@H](Cc1c(F)c(F)c(F)c(F)c1F)C(=O)N[C@@H](CCCCNC(=N)N)C(=O)Nc1ccc2c(CC(N)=O)cc(=O)oc2c1)C(C)C),< 10,"317,900 M^-1s^-1",175 M⁻¹ s⁻¹,< 10 M⁻¹ s⁻¹,187 M⁻¹ s⁻¹
Ac-His-DVal-Phe(F5)-Lys-ACC,< 10,"231,000 M^-1s^-1",< 10 M⁻¹ s⁻¹,< 10 M⁻¹ s⁻¹,< 10 M⁻¹ s⁻¹
Ac-His-DVal-Phe(F5)-Nle(OBzl)-ACC,906,"2,290,000 M^-1s^-1","3,820 M^-1s^-1",508 M⁻¹ s⁻¹,"2,500 M^-1s^-1"
Ac-R[dV][Phe(F5)]R-{ACC} (SMILES CC(=O)N[C@@H](CCCNC(=N)N)C(=O)N[C@@H](C(=O)N[C@@H](Cc1c(F)c(F)c(F)c(F)c1F)C(=O)N[C@@H](CCCNC(=N)N)C(=O)Nc1ccc2c(CC(N)=O)cc(=O)oc2c1)C(C)C),< 10,"387,300 M^-1s^-1",333 M⁻¹ s⁻¹,< 10 M⁻¹ s⁻¹,101 M⁻¹ s⁻¹
Ac-[hArg][dV][Phe(F5)]R-{ACC} (SMILES CC(=O)N[C@@H](CCCCNC(=N)N)C(=O)N[C@@H](C(=O)N[C@@H](Cc1c(F)c(F)c(F)c(F)c1F)C(=O)N[C@@H](CCCNC(=N)N)C(=O)Nc1ccc2c(CC(N)=O)cc(=O)oc2c1)C(C)C),96,"454,800 M^-1s^-1",647 M⁻¹ s⁻¹,< 10 M⁻¹ s⁻¹,242 M⁻¹ s⁻¹
